Measurements: patent publication US20220079953A1, “METHODS FOR MANAGEMENT OF WEIGHT” (The University of Sydney, priority 2018, published 2022)

Tests used:
[1] = Progressive ratio consumption of a high-sugar high-fat food (M&Ms) by non-human primates; format: in vivo, rhesus monkeys; settings: for trend of breakpoint with increasing doses: 0, 1, 2, 3 mg/kg IM
Excerpt: Individuals who are overweight or obese frequently report intense cravings for, and motivation to, consume food. Here we model the motivational aspects that can drive excessive food-seeking and consumption, which can lead to overweight and obesity by studying rhesus monkeys who must respond under a progressive ratio to receive M&Ms (which are high in both fat and sugar). A progressive ratio requires subjects to work increasingly harder to obtain reinforcement, modelling the intense motivation and craving characteristic of excessive food-seeking and consumption in individuals who are obese, overweight or at risk of being overweight.
Five female rhesus monkeys were trained to press a lever to self-administer M&Ms. Under a progressive ratio, subjects responded for a reinforcer of either 1 or 5 M&Ms. The ratio began at either 25 (two subjects) or 50 (three subjects) responses per reinforcement and increased by 40% after each reinforcer delivery. SOC-1 was administered IM using a within-subjects design whereby all monkeys received doses of 0, 1, 2 and 3 mg/kg SOC-1. One dose per subject was administered prior to each progressive ratio test session. Breakpoint refers to the number of times the monkeys would press the lever to receive a single reinforcer before giving up.

[2] = Sucrose self-administration under FR5 schedule; format: in vivo, Sprague Dawley rats; settings: 10% sucrose; for active lever presses / number of sucrose rewards received: 15 min before session, p<0.001
Excerpt: This model induces high levels of sucrose consumption and sucrose seeking in rats, akin to the unhealthy high sugar diets that are a major determinant of obesity. Excessive consumption of sugar-sweetened beverages are especially associated with increased risk of obesity and type 2 diabetes. Thus, the model chosen here is particularly well suited as it involves escalating voluntary consumption of high-sucrose solution by rats, providing both face and construct validity.
Male Sprague Dawley rats were water deprived for 19.5 hours before the start of sucrose self-administration. Water deprivation continued for the first five days of self-administration. Initially, rats were trained during daily 30 minute FR-1 scheduled sessions to lever press for sucrose (10%). Stable responding under the FR-1 schedule was achieved within 10 days. Rats were then transferred to an FR2 and FR3 schedule for a minimum of three days, and then an FR5 schedule until lever pressing stabilised. Subsequently SOC-1 testing began. Each test day was separated by 2-3 FR-5 scheduled sessions. Rats received SOC-1 in an ascending dose sequence (0, 5, and 10 mg/kg, ip), which was administered 15 minutes prior to the test session. On the final test session, rats received a vehicle injection to ensure rats continued to self-administer sucrose at high levels when not receiving treatment with SOC-1.

[3] = Reinstatement of sucrose-seeking; format: in vivo, Sprague Dawley rats; settings: for reinstatement of sucrose seeking: 15 min before session, p<0.001 vs 0 mg/kg reinstatement
Excerpt: Sugar is a highly palatable food component. This contributes greatly to the maintenance of the high sugar diets that can lead to obesity. Once a healthier diet has been established, including cessation of consumption of high sugar foods, it can be difficult for individuals to maintain that healthier diet. Specifically, after a period of not consuming the high sugar foods individuals can again start seeking out and consuming those foods. Here we model this resumption of high-sugar diet consumption using a rat model of reinstatement of sucrose self-administration to assess whether SOC-1 might reduce motivation to resume consumption of high-sugar foods.
Male Sprague Dawley rats were water deprived for 19.5 hours before the start of sucrose self-administration. Water deprivation continued for the first five days of self-administration. Rats were allowed to acquire self-administration of sucrose (10%) during 30-minute FR-1 scheduled sessions for 20 days. Following this, rats were exposed to daily 30-minute extinction sessions. Rats met the extinction criteria (minimum of 10 days and less than 15 active lever presses per session for 2 consecutive days) after 10 sessions. Once the extinction criteria were met, rats underwent reinstatement testing. Each reinstatement test session was separated by two extinction days. Prior to each reinstatement session, rats received an injection of vehicle or SOC-1. Fifteen minutes later, they were placed in the testing chamber, where they had access to 0.3 ml sucrose, which they could lever press for. Rats received SOC-1 in an ascending dose sequence (0, 5, 10 mg/kg, ip). On the reinstatement session subsequent to SOC-1 dose testing, an additional vehicle session was conducted to ensure that rats continued to reinstate to sucrose-seeking behaviour when no treatment was given.

[4] = Extinction of food reward-associated lever pressing in food restricted rats; format: in vivo, Long-Evans rats; settings: all doses tested (5, 10, 20 mg/kg p.o.), 30 min before session
Protocol: Adult male Long-Evans rats were allowed to feed freely until they reached a target weight of 320-340 g. Rats were then maintained at this weight by restricting feeding. Once target weight had been reached, each rat was placed in an operant test chamber and was trained to press the right lever to receive a 45 mg food pellet under an FR1 schedule of reinforcement during daily 15 min sessions.
Once stable responding (right-side lever pressing+/−10% of the mean of the previous three sessions) had been established, drug testing commenced. Rats were pre-treated with SOC-1 (0, 5, 10, 20 mg/kg) administered by oral gavage (p.o.) 30 min prior to the start of the session.

[5] = Inhibition of weight gain in rats; format: in vivo, Sprague Dawley rats; settings: 30 mg/kg oral gavage once daily for 10 days; ad libitum standard chow
Protocol: 20 adult male Sprague Dawley rats were given ad libitum access to standard rat chow in their home cage over the course of the experiment. Rats were divided into four equally sized groups and were treated once daily with either 0, 5, 10 or 30 mg/kg SOC-1 via oral gavage for 10 days. Body weights were recorded daily.

Q: For Cn1ncc2c1Nc1ccccc1NC2 [SOC-1], which “trend of breakpoint with increasing doses” value ([1]; reinforcement 1 M&M, trend analysis p=0.012) is on record?
A: significant linear decrease in breakpoint

Q: And the “breakpoint (lever presses for a single reinforcer before giving up)” value ([1]; reinforcement 1 M&M, 2 mg/kg IM, p=0.015 vs 0 mg/kg)?
A: significantly reduced the breakpoint

Q: What about the “breakpoint (lever presses for a single reinforcer before giving up)” value ([1]; reinforcement 1 M&M, 3 mg/kg IM, p=0.014 vs 0 mg/kg) of the same molecule?
A: significantly reduced the breakpoint

Q: What about the “trend of breakpoint with increasing doses” value ([1]; reinforcement 5 M&Ms, trend analysis p=0.025) of the same molecule?
A: significant linear decrease in breakpoint

Q: And the “breakpoint (lever presses for a single reinforcer before giving up)” value ([1]; reinforcement 5 M&Ms, 3 mg/kg IM, p=0.021 vs 0 mg/kg)?
A: significantly reduced the breakpoint

Q: What about the active lever presses ([2]; 5 mg/kg ip) of the same molecule?
A: significantly decreased

Q: What about the “number of sucrose rewards received” value ([2]; 5 mg/kg ip) of the same molecule?
A: significantly decreased

Q: And the active lever presses ([2]; 10 mg/kg ip)?
A: significantly decreased

Q: What about the “number of sucrose rewards received” value ([2]; 10 mg/kg ip) of the same molecule?
A: significantly decreased

Q: And the inactive lever presses ([2]; 5 and 10 mg/kg ip)?
A: no significant effect

Q: And the “reinstatement of sucrose seeking” value ([3]; 5 mg/kg ip)?
A: completely prevented reinstatement

Q: And the “reinstatement of sucrose seeking” value ([3]; 10 mg/kg ip)?
A: completely prevented reinstatement

Q: What about the inactive lever presses ([3]; reinstatement sessions, any dose (5, 10 mg/kg ip)) of the same molecule?
A: no significant effect

Q: And the “non-reinforced responding for a food pellet” value [4]?
A: significantly reduced

Q: What about the “weight gain over the 10 treatment days” value [5] of the same molecule?
A: significantly inhibited weight gain
